Test results reported in patent US20230407243A1, “GENETIC PLATFORM TO INVESTIGATE THE FUNCTIONS OF BACTERIAL DRUG EFFLUX PUMPS” (priority 2022, published 2023).
Values after ≈ are worked out from the molar mass of the structure shown. “Also recorded” adds a separate entry of the source.

How the values were obtained:
Format in all cases: cell-based, Escherichia coli
[1] = tested on: EKO-35 strains with integrated RND tripartite efflux pumps (AcrB, AcrEF, AcrD, and MdtEF) with pGDP2:emrE or empty pGDP-2; assay: Efflux pump interplay MIC profiling (pGDP2:emrE); conditions: for interplay of EmrE with tripartite efflux pumps on resistance: EKO-35, AcrB, AcrEF, AcrD, MdtEF combined with pEmrE; for Interplay effect / MIC / Fold Change from EKO-35: Pore −
[2] = tested on: EKO-35-Pore strains with integrated AcrB, AcrEF, AcrD, MdtEF with pGDP2:emrE or empty pGDP-2; assay: Efflux pump interplay MIC profiling (pGDP2:emrE), porinated; conditions: for interplay of EmrE with tripartite efflux pumps on resistance: AcrB, AcrEF, AcrD, MdtEF combined with pEmrE; for Interplay effect / MIC / Fold Change from EKO-35: Pore +
Text: This plasmid enables single-copy genomic integration of a selected gene through integration into the nonessential araC gene within the arabinose operon (Cox, G. et al., 2022). All E. coli genes were amplified from E. coli BW25113 genomic DNA, and mexCD was amplified from P. aeruginosa PAO1, using a high-fidelity polymerase, followed by ligation into pINT2. Successful clones were verified using PCR (Primers: pLac-Fwd/pINT-Rev, Table 4) and confirmed via Sanger sequencing at The Centre for Applied Genomics (TCAG) (The Hospital for Sick Children) and the AAC (University of Guelph). For the interplay studies, this process was repeated using the pGDP2 plasmid (Cox, G. et al., 2022).
To enable comparison between efflux production in different genetic backgrounds, each efflux pump-encoding gene was also integrated into the genome of the wild-type BW25113 strain, the single gene deletion mutant from the Keio Collection, and EKO-35. Strains of interest were propagated on LB agar at 37° C. Cell inoculum was prepared using the colony resuspension method and applied to a 96-well well plate (VWR) in technical duplicate, and the minimum inhibitory concentrations were determined according to Clinical & Laboratory Standards Institute (CLSI) protocols in MHB II (Patel J. B. et al, 2015). The plates were incubated for 18 h (Multitron Shaker, Infors HT) at 37° C. with aeration at 900 rpm. The plates were equilibrated to room temperature before the OD600 nm was measured using a BioTek Synergy H1 microplate reader. For interplay profiling, blank subtracted OD600 nm values >0.1 were considered to represent growth.
To investigate, the EKO-35-Pore strains were profiled using the same approach.

EKO-35 gyrB (pCA24N) = assay: MIC of strains harboring ASKA plasmids; conditions: 0.1 mM IPTG
[3] = tested on: EKO-35-Pore expressing the P. aeruginosa pump mexCD; assay: Checkerboard synergy (FICI), porinated strain; conditions: EKO-35 mexCD Pore
Summary of the method: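 Checkerboard broth microdilution in MHB II followed CLSI guidelines, with MIC defined as the lowest concentration giving no growth by OD600. FICI was calculated as CA/MICA + CB/MICB for PAβN or NMP combined with an antibiotic, with <0.5 classed as synergistic. Efflux-attributed fold resistance is the strain MIC divided by the EKO-35 MIC.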

For `C[n+]1c2cc(N)ccc2cc2ccc(N)cc21.[Cl-]` [acriflavine], the “interplay of EmrE with tripartite efflux pumps on resistance” value [1] was “multiplicative effects”, the Interplay effect ([1]; acrB with pEmrE) was “Multiplicative” and the Interplay effect ([1]; acrD with pEmrE) was “Multiplicative”. The Interplay effect ([1]; acrEF with pEmrE) was “Multiplicative”, the Interplay effect ([1]; mdtEF with pEmrE) was “Multiplicative” and the MIC ([1]; strain EKO-35) was 0.098 µg/mL. The “Fold Change from EKO-35” value ([1]; strain EKO-35 pEmrE) was 8, the MIC ([1]; strain EKO-35 pEmrE) was 0.781 µg/mL and the “Fold Change from EKO-35” value ([1]; strain acrB pEmrE) was 256. For the same compound, the MIC ([1]; strain acrB pEmrE) was 25 µg/mL, the “Fold Change from EKO-35” value ([1]; strain acrB) was 16 and the MIC ([1]; strain acrB) was 1.56 µg/mL. For the same compound, the “Fold Change from EKO-35” value ([1]; strain acrD pEmrE) was 16, the MIC ([1]; strain acrD pEmrE) was 1.56 µg/mL and the “Fold Change from EKO-35” value ([1]; strain acrD) was 1. For the same compound, the MIC ([1]; strain acrD) was 0.098 µg/mL, the “Fold Change from EKO-35” value ([1]; strain acrEF pEmrE) was 128 and the MIC ([1]; strain acrEF pEmrE) was 12.5 µg/mL. For the same compound, the “Fold Change from EKO-35” value ([1]; strain acrEF) was 8, the MIC ([1]; strain acrEF) was 0.781 µg/mL and the “Fold Change from EKO-35” value ([1]; strain mdtEF pEmrE) was 16. The MIC ([1]; strain mdtEF pEmrE) was 1.56 µg/mL, the “Fold Change from EKO-35” value ([1]; strain mdtEF) was 1 and the MIC ([1]; strain mdtEF) was 0.098 µg/mL. The “resistance conferred by AcrD alone or in combination with EmrE” value ([2]; EKO-35-Pore) was “did not increase resistance”, the “interplay of EmrE with tripartite efflux pumps on resistance” value ([2]; EKO-35-Pore) was “Interplay was maintained” and the “interplay of EmrE with AcrD on resistance” value ([2]; EKO-35-Pore, AcrD with EmrE) was “multiplicative effect was lost”. For the same compound, the Interplay effect ([2]; acrB with pEmrE) was “Multiplicative”, the Interplay effect ([2]; acrEF with pEmrE) was “Multiplicative” and the Interplay effect ([2]; mdtEF with pEmrE) was “Multiplicative”. For the same compound, the MIC ([2]; strain EKO-35) was 0.049 µg/mL, the “Fold Change from EKO-35” value ([2]; strain EKO-35 pEmrE) was 16 and the MIC ([2]; strain EKO-35 pEmrE) was 0.781 µg/mL. The “Fold Change from EKO-35” value ([2]; strain acrB pEmrE) was 256, the MIC ([2]; strain acrB pEmrE) was 12.5 µg/mL and the “Fold Change from EKO-35” value ([2]; strain acrB) was 16. For the same compound, the MIC ([2]; strain acrB) was 0.781 µg/mL, the “Fold Change from EKO-35” value ([2]; strain acrD pEmrE) was 16 and the MIC ([2]; strain acrD pEmrE) was 0.781 µg/mL. The “Fold Change from EKO-35” value ([2]; strain acrD) was 2, the MIC ([2]; strain acrD) was 0.098 µg/mL and the “Fold Change from EKO-35” value ([2]; strain acrEF pEmrE) was 128. The MIC ([2]; strain acrEF pEmrE) was 6.25 µg/mL, the “Fold Change from EKO-35” value ([2]; strain acrEF) was 16 and the MIC ([2]; strain acrEF) was 0.781 µg/mL. The “Fold Change from EKO-35” value ([2]; strain mdtEF pEmrE) was 32, the MIC ([2]; strain mdtEF pEmrE) was 1.56 µg/mL and the “Fold Change from EKO-35” value ([2]; strain mdtEF) was 4. The MIC ([2]; strain mdtEF) was 0.195 µg/mL.
With `CN(C)c1ccc(O)c2c1C[C@H]1C[C@H]3[C@H](N(C)C)C(O)=C(C(N)=O)C(=O)[C@@]3(O)C(O)=C1C2=O` [minocycline] the MIC ([1]; strain EKO-35) was 1.25 µg/mL (≈ 2.73 µM), the “Fold Change from EKO-35” value ([1]; strain EKO-35 pEmrE) was 1 and the MIC ([1]; strain EKO-35 pEmrE) was 1.25 µg/mL (≈ 2.73 µM). The “Fold Change from EKO-35” value ([1]; strain acrB pEmrE) was 4, the MIC ([1]; strain acrB pEmrE) was 5 µg/mL (≈ 10.9 µM) and the “Fold Change from EKO-35” value ([1]; strain acrB) was 4. For the same compound, the MIC ([1]; strain acrB) was 5 µg/mL (≈ 10.9 µM), the “Fold Change from EKO-35” value ([1]; strain acrD pEmrE) was 2 and the MIC ([1]; strain acrD pEmrE) was 2.5 µg/mL (≈ 5.46 µM). For the same compound, the “Fold Change from EKO-35” value ([1]; strain acrD) was 2, the MIC ([1]; strain acrD) was 2.5 µg/mL (≈ 5.46 µM) and the “Fold Change from EKO-35” value ([1]; strain acrEF pEmrE) was 4. The MIC ([1]; strain acrEF pEmrE) was 5 µg/mL (≈ 10.9 µM), the “Fold Change from EKO-35” value ([1]; strain acrEF) was 2 and the MIC ([1]; strain acrEF) was 2.5 µg/mL (≈ 5.46 µM). The “Fold Change from EKO-35” value ([1]; strain mdtEF pEmrE) was 2, the MIC ([1]; strain mdtEF pEmrE) was 2.5 µg/mL (≈ 5.46 µM) and the “Fold Change from EKO-35” value ([1]; strain mdtEF) was 2. For the same compound, the MIC ([1]; strain mdtEF) was 2.5 µg/mL (≈ 5.46 µM), the MIC ([2]; strain EKO-35) was 0.63 µg/mL and the “Fold Change from EKO-35” value ([2]; strain EKO-35 pEmrE) was 1. For the same compound, the MIC ([2]; strain EKO-35 pEmrE) was 0.63 µg/mL, the “Fold Change from EKO-35” value ([2]; strain acrB pEmrE) was 4 and the MIC ([2]; strain acrB pEmrE) was 2.5 µg/mL. The “Fold Change from EKO-35” value ([2]; strain acrB) was 4, the MIC ([2]; strain acrB) was 2.5 µg/mL and the “Fold Change from EKO-35” value ([2]; strain acrD pEmrE) was 2. The “Fold Change from EKO-35” value ([2]; strain acrD) was 2, the “Fold Change from EKO-35” value ([2]; strain acrEF pEmrE) was 2 and the “Fold Change from EKO-35” value ([2]; strain acrEF) was 2. For the same compound, the “Fold Change from EKO-35” value ([2]; strain mdtEF pEmrE) was 2 and the “Fold Change from EKO-35” value ([2]; strain mdtEF) was 2.
With `CO[C@@H]1[C@@H](OC(N)=O)[C@@H](O)[C@H](Oc2ccc3c(O)c(NC(=O)c4ccc(O)c(CC=C(C)C)c4)c(=O)oc3c2C)OC1(C)C` [novobiocin] the “effect of gyrB overexpression on resistance of EKO-35” value (EKO-35 gyrB (pCA24N); ASKA plasmid) was “increased novobiocin resistance”, the MIC (EKO-35 gyrB (pCA24N); Escherichia coli, EKO-35 gyrB, Chlor + (4 μg/mL), read-out: MIC) was 25 µg/mL and the “interplay of EmrE with tripartite efflux pumps on resistance” value [1] was “Interplay was not observed; also recorded: did not observe synergy”. The “extrusion by EmrE” value ([1]; negative controls) was “not extruded by EmrE”, the MIC ([1]; strain EKO-35) was 0.781 µg/mL (≈ 1.27 µM) and the “Fold Change from EKO-35” value ([1]; strain EKO-35 pEmrE) was 1. For the same compound, the MIC ([1]; strain EKO-35 pEmrE) was 0.781 µg/mL (≈ 1.27 µM), the “Fold Change from EKO-35” value ([1]; strain acrB pEmrE) was 512 and the MIC ([1]; strain acrB pEmrE) was 400 µg/mL (≈ 653 µM). The “Fold Change from EKO-35” value ([1]; strain acrB) was 512, the MIC ([1]; strain acrB) was 400 µg/mL (≈ 653 µM) and the “Fold Change from EKO-35” value ([1]; strain acrD pEmrE) was 64. For the same compound, the MIC ([1]; strain acrD pEmrE) was 50 µg/mL (≈ 81.6 µM), the “Fold Change from EKO-35” value ([1]; strain acrD) was 128 and the MIC ([1]; strain acrD) was 100 µg/mL (≈ 163 µM). The “Fold Change from EKO-35” value ([1]; strain acrEF pEmrE) was 64, the MIC ([1]; strain acrEF pEmrE) was 50 µg/mL (≈ 81.6 µM) and the “Fold Change from EKO-35” value ([1]; strain acrEF) was 128. The MIC ([1]; strain acrEF) was 100 µg/mL (≈ 163 µM), the “Fold Change from EKO-35” value ([1]; strain mdtEF pEmrE) was 8 and the MIC ([1]; strain mdtEF pEmrE) was 6.25 µg/mL (≈ 10.2 µM). The “Fold Change from EKO-35” value ([1]; strain mdtEF) was 16, the MIC ([1]; strain mdtEF) was 12.5 µg/mL (≈ 20.4 µM) and the “interplay of EmrE with tripartite efflux pumps on resistance” value ([2]; EKO-35-Pore) was “Interplay was not observed”. For the same compound, the MIC ([2]; strain EKO-35) was 0.391 µg/mL, the “Fold Change from EKO-35” value ([2]; strain EKO-35 pEmrE) was 1 and the MIC ([2]; strain EKO-35 pEmrE) was 0.391 µg/mL. The “Fold Change from EKO-35” value ([2]; strain acrB pEmrE) was 256, the MIC ([2]; strain acrB pEmrE) was 100 µg/mL and the “Fold Change from EKO-35” value ([2]; strain acrB) was 256. For the same compound, the MIC ([2]; strain acrB) was 100 µg/mL, the “Fold Change from EKO-35” value ([2]; strain acrD pEmrE) was 16 and the “Fold Change from EKO-35” value ([2]; strain acrD) was 64. The MIC ([2]; strain acrD) was 25 µg/mL, the “Fold Change from EKO-35” value ([2]; strain acrEF pEmrE) was 32 and the “Fold Change from EKO-35” value ([2]; strain acrEF) was 32. For the same compound, the “Fold Change from EKO-35” value ([2]; strain mdtEF pEmrE) was 4, the MIC ([2]; strain mdtEF pEmrE) was 1.56 µg/mL and the “Fold Change from EKO-35” value ([2]; strain mdtEF) was 8. For the same compound, the MIC ([2]; strain mdtEF) was 3.13 µg/mL.
With “phenylalanine-arginine-β-naphthylamide [PAβN]” the “PABN MICa Alone” value ([3]; PAβN alone, one value per checkerboard) was 64 µg/mL, the “PABN MICa Combined” value ([3]; with Ciprofloxacin) was 16 µg/mL and the “PABN MICa Combined” value ([3]; with Erythromycin) was 8 µg/mL.
